Laboratory results as given in ChEMBL document CHEMBL5143577, “Development of a degrader against oncogenic fusion protein FGFR3-TACC3” (Bioorg Med Chem Lett, 2022).
Active and inactive are the calls of the source. The calls are words filed in the database; no cut-off is given here.

Tests used:
RT-4 [1] = test: Sniper activity at FGFR3-TACC3 in human RT4 cells assessed as decrease in FGFR3-TACC3 protein level at 30 uM after 6 hrs; type: cell-based
RT-4 [2] = test: Sniper activity at FGFR3-TACC3 in human RT4 cells assessed as decrease in FGFR3-TACC3 protein level at 3 uM after 6 hrs; type: cell-based
RT-4 [3] = test: Sniper activity at FGFR3-TACC3 in human RT4 cells assessed as decrease in FGFR3-TACC3 protein level at 3 uM after 6 hrs in presence of siRNA XIAP; type: cell-based
RT-4 [4] = test: Antiproliferative activity against human RT-4 cells expressing FGFR3-TACC3 at 3 uM measured after 72 hrs by WST assay; type: functional, cell-based

Row | SMILES | Activity (RT-4 [1]) | Activity (RT-4 [2]) | Activity (RT-4 [3]) | Activity (RT-4 [4])
1 | CC(C)CNc1ccnc(NCc2csc(-c3ccc(C(=O)NCCOCCOCCOCCNC(=O)[C@H](CC(C)C)NC(=O)[C@@H](O)[C@H](N)Cc4ccccc4)cc3)n2)n1 | Active |  |  | 
2 | CN[C@@H](C)C(=O)N[C@H](C(=O)N1C[C@@H](Oc2cccc(OCCOCCOCCOCCNC(=O)c3ccc(-c4nc(CNc5nccc(NCC(C)C)n5)cs4)cc3)c2)C[C@H]1C(=O)N[C@@H]1CCCc2ccccc21)C1CCCCC1 |  | Active |  | 
3 | CN[C@@H](C)C(=O)N[C@H](C(=O)N1CCC[C@H]1c1nc(C(=O)c2cccc(OCCOCCOCCNC(=O)c3ccc(-c4nc(CNc5nccc(NCC(C)C)n5)cs4)cc3)c2)cs1)C1CCCCC1 |  | Active | Active | Active
4 | CN[C@@H](C)C(=O)N[C@H](C(=O)N1C[C@@H](Oc2cccc(OCCOCCOCCOCCOCCNC(=O)c3ccc(-c4nc(CNc5nccc(NCC(C)C)n5)cs4)cc3)c2)CC1C(=O)N[C@@H]1CCCc2ccccc21)C1CCCCC1 (some centres not stated) |  | Active |  | 
5 | CN[C@@H](C)C(=O)N[C@H](C(=O)N1CCC[C@H]1c1nc(C(=O)c2cccc(OCCOCCOCCOCCNC(=O)c3ccc(-c4nc(CNc5nccc(NCC(C)C)n5)cs4)cc3)c2)cs1)C1CCCCC1 |  | Active |  | 
